Results taken from US9696306B2, “Methods of reducing levels of tau” (The Trustees of Columbia University in the City of New York, priority 2011, dated 2017).
Structures can show the parent of a compound that is named as a salt.

test system: tau; experiment: Assay for tau: Western blot of tau isoforms in wild type mES cell-derived pyramidal neurons; format: cell-based, mouse; parameters: key: *: asterisk denotes hit compounds; conditions: 1 uM; treated at 14 DIV for 48 hr; Western blot (CP13, PHF)
Protocol: (§1) In certain embodiments, the inhibitor of the present invention is identified by an assay directed to detecting inhibitors of tau phosporylation. For example, but not by way of limitation, such assays can include assays such as those prepared as follows. First, wild type, mouse embryoinc stem cells are differentiated into pyramidal neurons using the protocol described in Example 1. ES cell-derived neurons are treated at 14 DIV for 48 hr with either vehicle (D, DMSO) or various histone demethylase inhibitors (inhibitor compounds 1-10). Tau isoforms are detected by Western blot analysis of the cell lysates using the indicated antibodies, See FIG. 11. CP13 recognizes tau phosphorylation at ser202/205. PHF recognizes tau phosphorylation at ser396/404. TUJ1 (Neuron-specific class III beta-tubulin) is used as a loading control.
as §1, with “Wild” for “In certain embodiments, the inhibitor of the present invention is identified by an assay directed to detecting inhibitors of tau phosporylation. For example, but not by way of limitation, such assays can include assays such as those prepared as follows. First, wild”, “were” for “are”
List of inhibitor compounds tested for their ability to inhibit levels of total tau, disease-associated phosphorylated or presence of modified forms of tau include (asterisk denotes hit compounds): *1. pargyline (LSD1 inhibitor)—1000 uM; *2. deprenyl (LSD1 inhibitor)—1000 uM; *3. propargyl (LSD1 inhibitor)—100 uM; 4. phenelzine (LSD1 inhibitor)—100 uM; 5. tranylcyprmine (LSD1 inhibitor)—200 uM; *6. S2101 (LSD1 Inhibitor II, EMD Biosciences catalog #489477)—LSD1 inhibitor—1 uM; 7. N-oxyalylglycine (NOG) (JMJD2s inhibitor)—1000 uM; *8. pyradine (JMJ2A and E inhibitor)—1000 uM; *9. disulfiram (JMJ2A inhibitor)—20 uM; *10. ebselen (JMJ2A inhibitor)—20 uM.

| Compound | ability to inhibit levels of total tau, disease-associated phosphorylated or presence of modified forms of tau |
| --- | --- |
| NC1CC1c1cc(F)cc(F)c1OCc1ccccc1 (stereo not shown) [S2101] | * |

same assay, conditions: 20 uM; treated at 14 DIV for 48 hr; Western blot (CP13, PHF)

| Compound | ability to inhibit levels of total tau, disease-associated phosphorylated or presence of modified forms of tau |
| --- | --- |
| CCN(CC)C(=S)SSC(=S)N(CC)CC [disulfiram] | * |
| O=c1c2ccccc2[se]n1-c1ccccc1 [ebselen] | * |

same assay, conditions: 1000 uM; treated at 14 DIV for 48 hr; Western blot (CP13, PHF)

| Compound | ability to inhibit levels of total tau, disease-associated phosphorylated or presence of modified forms of tau |
| --- | --- |
| C#CCN(C)[C@H](C)Cc1ccccc1 [deprenyl] | * |
| C#CCN(C)Cc1ccccc1 [pargyline] | * |

test system: Aβ40; experiment: Screen of NIH clinical collection compounds for reduction of Aβ40 in Tg2576 mES cell derived neurons (Aβ40 ELISA); format: cell-based, mouse; parameters: Percent Inhibition: concentration or dose not given beside the values; conditions: Aβ40 in conditioned media vs DMSO control; neurons treated on day 8 after plating for 24 hours
Protocol: In certain embodiments, the inhibitor of the present invention is identified by an assay directed to detecting inhibitors of Aβ40 production. For example, but not by way of limitation, such assays can include assays such as those prepared as follows. First, mouse ES cells isolated from Tg2576 mice are subjected to directed differentiation as previously described. After dissociation of embryoid bodies, neurons are plated in poly-D-lysine and laminin coated 96 well black plates at a density of 1.5×10^5 cells/cm2 which is 45,000 cells/well. Media is changed to N2 containing media after 4 hours and again the next day after plating. Two days after plating, media is changed to B27 containing media which is replaced every 2 days after that. On day 8 after plating the mouse ES derived neurons are treated with the compound of interest. […] In certain embodiments the compounds are incubated with the cells for 24 hours in 150 μl B27 media. In certain embodiments each plate of ES derived neurons is treated with NCC compounds, DMSO (negative control), and the positive controls for Aβ reduction BACE inhibitor IV (Calbiochem) and Compound E. After 24 hours, 100 μl conditioned media can then be removed and frozen at −80° C. until further analysis for Aβ40 content. The remaining cells in 50 μl media can be subjected to cell viability assay CellQuanti Blue (BioAssay Systems). In certain embodiments, conditioned media can be subjected to Aβ40 quantification, e.g., by using Aβ40 ELISA (Invitrogen).
Mouse ES cells isolated from. Tg2576 mice were subjected to directed differentiation as previously described. After dissociation of embryoid bodies, neurons were plated in poly-D-lysine and laminin coated 96 well black plates at a density of 1.5×10^5 cells/cm2 which is 45,000 cells/well. Media was changed to N2 containing media after 4 hours and again the next day after plating. Two days after plating, media was changed to B27 containing media which was replaced every 2 days after that. […] Each plate of ES derived neurons was treated with NCC compounds, DMSO (negative control), and the positive controls for Aβ reduction BACE inhibitor IV (Calbiochem) and Compound E. After 24 hours, 100 μl conditioned media was removed and frozen at −80° C. until further analysis for Aβ40 content. The remaining cells in 50 μl media were subjected to cell viability assay CellQuanti Blue (BioAssay Systems). Conditioned media was subjected to Aβ40 quantification using Aβ40 ELISA (Invitrogen). Compounds which lowered Aβ40 levels in the conditioned media were identified as hits if they reduced Aβ40 by 4 standard deviations of the negative control (DMSO) but maintained cell viability. Cell viability was defined by CellQuanti Blue fluorescent signal maintained within two standard deviations of fluorescent signal from the control treated (DMSO) cells. High potency hits were defined by reducing Aβ40 40% or more (signal 60% of DMSO control).
Hits were defined as lowering Aβ by 4 standard deviations below the negative control (DMSO) treated condition but maintaining cell viability within 2 standard deviations of control.

| Compound | Percent Inhibition [%] |
| --- | --- |
| C[N+]1(C)CCN(c2ccccc2)CC1.[I-] [1,1,-dimethyl-4-phenylpiperazinium iodide] | 9 |
| Cc1ncc([N+](=O)[O-])n1CC(C)O (stereo not shown) [1-(2-methyl-5-nitro-imidazol-1-yl)-propan-2-ol] | 12 |
| O=C1N(c2ccccc2)c2ccccc2C1(Cc1ccncc1)Cc1ccncc1 [2h-indol-2-one,1,3-dihydro-1-phenyl-3,3-bis(4-pyridinylmethyl)] | 22 |
| O=C(NCCN1CCOCC1)c1ccc(Cl)cc1 [4-chloro-n-(2-morpholin-4-yl-ethyl)-benzamide] | 21 |
| O=[N+]([O-])c1cccc2cn[nH]c12 [7-nitroindazole] | 17 |
| Cl.Nc1c2c(nc3c1CCC3)CCCC2 [amiridine, cyclopenta[b]quinolin-9-amine, 2,3,5,6,7,8-hexahydro-,monohydrochloride] | 40 |
| CN1C2CC(OC(=O)C(CO)c3ccccc3)CC1C1OC12 (stereo not drawn) [benzeneacetic acid, alpha-(hydroxymethyl)-, 9-methyl-3-oxa-9-azatricyclo[3,3,1,2,4]non-7-yl ester] | 67 |
| COc1cc(OC)c(C(=O)CCCN2CCCC2)c(OC)c1 [buflomedil] | 13 |
| COc1cc(CNC(=O)CCCC/C=C/C(C)C)ccc1O [capsaicin] | 62 |
| C=CC1=C(C(=O)O)N2C(=O)[C@@H](NC(=O)/C(=N\OCC(=O)O)c3csc(N)n3)[C@H]2SC1 [cefixime] | 19 |
| CC[C@H]1OC(=O)[C@H](C)[C@@H](O[C@H]2C[C@@](C)(OC)[C@@H](O)[C@H](C)O2)[C@H](C)[C@@H](O[C@@H]2O[C@H](C)C[C@H](N(C)C)[C@H]2O)[C@](C)(OC)C[C@@H](C)C(=O)[C@H](C)[C@@H](O)[C@]1(C)O [clarithromycin] | 22 |
| CN1C(=O)CN=C(c2ccccc2)c2cc(Cl)ccc21 [diazepam] | 11 |
| O=C(O)C(Cl)Cl [dichloroacetic acid] | 11.5 |
| C[C@@H]1C[C@H]2[C@@H]3C[C@H](F)C4=CC(=O)C(Cl)=C[C@]4(C)[C@@]3(F)[C@@H](O)C[C@]2(C)[C@@]1(O)C(=O)CO [halometasone] | 14 |
| COc1ccc(-c2oc3c(CC=C(C)C)c(O[C@@H]4O[C@H](CO)[C@@H](O)[C@H](O)[C@H]4O)cc(O)c3c(=O)c2O[C@@H]2O[C@@H](C)[C@H](O)[C@@H](O)[C@H]2O)cc1 [icariin] | 53 |
| CO[C@@H]1[C@@H](O[C@@H]2O[C@H](C)[C@@H](O[C@H]3C[C@@](C)(O)[C@@H](OC(=O)CC(C)C)[C@H](C)O3)[C@H](N(C)C)[C@H]2O)[C@@H](CC=O)C[C@@H](C)[C@@H](O)/C=C/C=C/C[C@@H](C)OC(=O)C[C@H]1O [kitasamycin] | 16 |
| CC(Oc1c(Cl)cccc1Cl)C1=NCCN1 (stereo not shown) [lofexidine] | 17 |
| CC(C(=O)O)c1ccc(CC2CCCC2=O)cc1 (stereo not shown) [loxoprofen] | 9 |
| CC(=O)O[C@]1(C(C)=O)CC[C@H]2[C@@H]3C=C(C)C4=CC(=O)CC[C@]4(C)[C@H]3CC[C@@]21C [megestrol acetate] | 20 |

| Compound | Percent Inhibition [%] |
| --- | --- |
| Oc1ccc2c3c1O[C@H]1c4[nH]c5ccccc5c4C[C@@]4(O)[C@@H](C2)N(CC2CC2)CC[C@]314 [naltrindole] | 66 |
| CN1C(=O)CN=C(c2ccccc2)c2cc([N+](=O)[O-])ccc21 [nimetanzepam] | 13 |
| c1cncc([C@@H]2CCCN2)c1 [nornicotine] | 50 |
| Cc1ncc([N+](=O)[O-])n1CC(O)CCl (stereo not shown) [orinidazole] | 9 |
| Nc1nc(O)c2ncn(CCC(CO)CO)c2n1 [peniciclovir] | 11 |
| NNCCc1ccccc1 [phenelzine sulfate] | 70 |
| OC[C@H]1O[C@@H](Oc2cc(O)cc(/C=C/c3ccc(O)cc3)c2)[C@H](O)[C@@H](O)[C@@H]1O [piceid] | 11 |
| C[C@@H](N=C(NC#N)Nc1ccncc1)C(C)(C)C [pinacicil] | 17 |
| Cc1nc2ccccn2c(=O)c1CCN1CCC(C(=O)c2ccc(F)cc2)CC1 [pirenperone] | 11 |
| CN1C(C(=O)Nc2ccccn2)=C(O)c2ccccc2S1(=O)=O [piroxicam] | 9.5 |
| COc1cc(-c2ccc(=O)[nH]n2)ccc1OC(F)F [pyridazinone, 6-[4-difluoromethoxy)-3-methoxyphenyl]] | 50 |
| CN(C)CCc1c[nH]c2ccc(Cn3cncn3)cc12 [rizatriptan benzoate] | 10 |
| CS(=O)(=O)c1ccc(C2=C(c3ccccc3)C(=O)OC2)cc1 [rofecoxib] | 12 |
| CC(=O)OCC(=O)NCCCOc1cccc(CN2CCCCC2)c1 [roxatidine acetate] | 12 |
| CNS(=O)(=O)Cc1ccc2[nH]cc(CCN(C)C)c2c1 [sumatriptan succinate] | 8 |
| O[C@@H]1CCCC[C@H]1N1CCC(c2ccccc2)CC1 [vesamicol hcl] | 52 |
| gabexate mesylate | 20 |
| medroxyprogesterone | 20 |
| salbutamol sulfate | 70 |

same assay, conditions: Aβ40 lowering; high priority hits confirmed from independent compound sources; read-out: IC50

| Compound | IC50 [nM] |
| --- | --- |
| Cl.Nc1c2c(nc3c1CCC3)CCCC2 [amiridine, cyclopenta[b]quinolin-9-amine, 2,3,5,6,7,8-hexahydro-,monohydrochloride] | 2300 |

same assay, conditions: Mus musculus, Neuron

| Compound | IC50 [nM] |
| --- | --- |
| COc1ccc(-c2oc3c(CC=C(C)C)c(O[C@@H]4O[C@H](CO)[C@@H](O)[C@H](O)[C@H]4O)cc(O)c3c(=O)c2O[C@@H]2O[C@@H](C)[C@H](O)[C@@H](O)[C@H]2O)cc1 [icariin] | 5100 |

same assay, conditions: Mus musculus, Neuron; Aβ40 lowering; high priority hits confirmed from independent compound sources; read-out: IC50

| Compound | IC50 [nM] |
| --- | --- |
| NNCCc1ccccc1 [phenelzine sulfate] | 2500 |
